The text below walks through data of patent US20250222009A1, “DINUCLEAR GOLD(I) COMPLEXES FOR TREATING CANCER” (KING FAHD UNIVERSITY OF PETROLEUM AND MINERALS, priority 2024, published 2025).

The subject of one assay is A549 (lung cancer cells). The assay is described as follows: MTT cytotoxicity assay, A549. Particulars: 72 h. Type of assay: cell-based, human. The procedure:
(§1) The human epithelial ovarian cancer A2780 cell line and its cisplatin-resistant clone A2780cis were obtained from Sigma-Aldrich (Milano, Italy). A2780cis cells were continuously exposed to 1 μM cisplatin to maintain cisplatin resistance. A549 cells (Human non-small cell lung cancer), MCF7 (metastatic breast cancer), PC3 (highly aggressive metastatic prostate cancer), and MG63 (osteosarcoma) were obtained from the American Type Culture Collection (ATCC). Cells were authenticated in laboratory using the PowerPlex 16 HS System. A2780, A2780cis, and PC3 cells were cultured in RPMI-1640 medium; MG63 and MCF7 cells were cultured in DMEM, and A549 cells were cultured in F12 NUT-MIX. The culture medium contained about 10% fetal bovine serum (FBS) (Gibco, Thermo Fisher Scientific, Monza, Italy), about 1% (v/v) of penicillin (10,000 units/mL)-streptomycin (10 mg/mL), and about 1% (v/v) L-glutamine (200 mM) (all from Sigma-Aldrich). Cells were cultured at 37° C. in a 5% CO2, fully humidified atmosphere.
(§2) 2.5×10^3 (PC3, MG63, MCF7) or 4.0×10^3 (A2780, A2780cis, A549) cells were seeded in 96-well microplates in 100 μL culture medium. Cells, allowed to adhere for 24 h, were then treated in triplicate with increasing concentrations of gold compounds. Cisplatin was included as a reference drug. Cell viability was evaluated using 3-(4,5-dimethylthiazol-2-yl)-2,5-diphenyltetrazolium bromide (MTT) assay (Sigma-Aldrich) after 72 h of treatment. Half maximal inhibitory concentrations (IC50), IC25, and IC75 were calculated using the CalcuSyn software version 2 (Biosoft, Ferguson, MO, USA) (See: Chou, T. C.; Talalay, P. Quantitative Analysis of Dose-Effect Relationships: The Combined Effects of Multiple Drugs or Enzyme Inhibitors. Adv. Enzyme Regul. 1984, 22, 27-55, which is incorporated herein by reference in its entirety). Fold resistance was calculated as the ratio of the IC50 of the A2780cis to that of the parental cell line A2780. Alternatively, cell viability was assayed by crystal violet staining (See: Feoktistova, M.; Geserick, P.; Leverkus, M. Crystal Violet Assay for Determining Viability of Cultured Cells. Cold Spring Harb Protoc 2016, 2016, pdb.prot087379, which is incorporated herein by reference in its entirety). Alternatively, after drug treatment, the culture Medium was removed, cells washed, fixed, and stained, and the Crystal Violet solution lasted 20 minutes (See: Sulaiman, A. A. A.; Casagrande, N.; Borghese, C.; Corona, G.; Isab, A. A.; Ahmad, S.; Aldinucci, D.; Altaf M. Design, Synthesis, and Preclinical Activity in Ovarian Cancer Models of New Phosphanegold(I)—N-Heterocyclic Carbene Complexes. J Med Chem 2022, 65, 14424-14440, which is incorporated herein by reference in its entirety).
(Tetrazolium dyes change colour on reduction, which living cells bring about.)

Assay [1] relates to PC3 (androgen-resistant prostate cancer). The assay is described as follows: MTT cytotoxicity assay, PC3. Particulars: 72 h, mean (SD). The class given is cell-based. The procedure:
as §1, §2

Another assay relates to 20S proteasome. The assay is described as follows: 20S Proteasome Activity Assay in treated cell lysates. Particulars: A549 cells treated 4 h. Type of assay: cell-based, human. On the procedure: Cells were treated with complex 3 (4 h), and then cells were lysed in 50 mM Tris-HCl pH 7.6, 0.1% Triton X-100, 0.9% NaCl to obtain the Proteasome activity (EC 3.4.25.1). The proteasome activity was tested using the 20S Proteasome Activity Assay kit APT280 (Merck Millipore) and a computer-interfaced GeniusPlus microplate reader (Tecan Trading AG, Switzerland). The activity was normalized to the protein concentration and expressed as a percentage of control (untreated cells).

The test system of another assay is ALDH1. The assay is described as follows: ALDH1 enzymatic activity (Aldeflour), flow cytometry. Particulars: A549, 24 h. The class given is cell-based, human. On the procedure: (§3) 2.0×10^5 A549 cells were seeded in 6-well plates in a complete medium and treated with the complex 3. Assay results were detected by flow cytometry on a BD FACSCanto II flow cytometer. Data were analyzed using BD FACSDiva v.8.0.1 software (BD Biosciences) unless otherwise indicated. Tumor cells were treated for 72 h with complex 3, then stained for 15 minutes with FITC Annexin-V (Thermo Fisher Scientific) and 7AAD (BD Pharmingen, Milan, Italy). Activated caspase-3,7 was detected using the CaspaTag Caspase-3,7 assay (Merck Millipore) after an incubation of 24 h with complex 3. For B-cell lymphoma/leukemia-2 protein (Bcl-2) and Bcl-2 associated x protein (Bax) analysis, cells were treated for 72 h with C3, then fixed and permeabilized (FIX & PERM Cell Fixation & Cell Permeabilization Kit, Life Technologies). […] The distribution of cells in different cell cycle phases was quantified using ModFit LT 4.0 software (Verity Software House, Topsham, ME, USA) (See: Sulaiman, A. A. A.; Casagrande, N.; Borghese, C.; Corona, G.; Isab, A. A.; Ahmad, S.; Aldinucci, D.; Altaf M. Design, Synthesis, and Preclinical Activity in Ovarian Cancer Models of New Phosphanegold(I)—N-Heterocyclic Carbene Complexes. J Med Chem 2022, 65, 14424-14440, which is incorporated herein by reference in its entirety). […]
For orientation: A flow cytometer gives signals particle by particle.

For a further assay, the system named is CD133. The assay is described as follows: CD133 surface expression, flow cytometry. Type of assay: cell-based, human. To be noted: A549, 24 h. On the procedure: as §3
The subject of another assay is NOTCH1. The assay is described as follows: NOTCH1 surface expression, flow cytometry. Type of assay: cell-based, human. Particulars: A549, 24 h. On the procedure: as §3
The next assay relates to A549 cells. The assay is described as follows: Crystal violet staining cell viability. Particulars: A549, 72 h. The class given is cell-based, human. The procedure:
as §2, with “Alternatively, after drug treatment, the culture Medium was removed, cells washed, fixed, and stained, and the Crystal Violet solution lasted 20 minutes (See: Sulaiman, A. A. A.; Casagrande, N.; Borghese, C.; Corona, G.; Isab, A. A.; Ahmad, S.; Aldinucci, D.; Altaf M. Design, Synthesis, and Preclinical Activity in Ovarian Cancer Models of New Phosphanegold(I)—N-Heterocyclic Carbene Complexes. J Med Chem 2022, 65, 14424-14440, which is incorporated herein by reference in its entirety).” left out

What is called IC50 is the concentration that inhibits the measured activity by half. Higher therefore signals a need for much substance.

Take `CC(C)c1cccc(C(C)C)c1-n1ccn(-c2c(C(C)C)cccc2C(C)C)[c]1=[Au-][P+](CCNCC[P+]([Au-]=[c]1n(-c2c(C(C)C)cccc2C(C)C)ccn1-c1c(C(C)C)cccc1C(C)C)(C1CCCCC1)C1CCCCC1)(C1CCCCC1)C1CCCCC1` [Complex 3, [(Au(IPr))2(C28H24P2)](PF6)2]: in the assay on A549 (lung cancer cells), the “IC25 A549” value came out at 0.06 µM. In addition, in the assay with A549 (lung cancer cells), the “IC75 A549” value turned out to be 0.60 µM. For the same compound, the IC50 with A549 (lung cancer cells) (mean (SD)) was determined as 0.13 µM; in assay [1] it was 0.24 µM. Besides, the 20S proteasome activity result in the assay on 20S proteasome is listed as “inhibited in a dose-dependent manner”. Also, the ALDH1 enzymatic activity result in the assay on ALDH1 was “reduced”. Also, the CD133 expression levels result in the assay on CD133 is given as “reduced”. Besides, the NOTCH1 expression entry in the assay with NOTCH1 was “decreased in a dose-dependent manner”. The “growth inhibition by crystal violet staining” value with A549 cells is “growth inhibition”.
